From US10214491B2, “Activators and therapeutic applications thereof” (THE JOHNS HOPKINS UNIVERSITY, priority 2007, dated 2019)
pEC50, pIC50: −log10 of the molar value.

Legend:
A375 melanoma (WTp53) = experiment: WST-1 cell viability assay, A375; type: cell-based; details: Homo sapiens, A-375, 72 h; A375 melanoma (WTp53), three days, WST-1
Method: (§1) The effect of the compounds selected using the screening assay on the viability of several tumor cell lines as well as diploid cell lines and cell strains was studied. Cells were plated in 96-well plates at a density of 10,000 cells/100 μL/well and were incubated overnight. The following day compound dilutions ranging from 0 to 40 μM were applied to the cells in triplicate and the cells were incubated with the compounds for three days. Cell viability was assayed using the WST-1 cell proliferation reagent (Roche Diagnostics, Germany) The WST-1 reagent was diluted 1:10 in cell culture media and 100 μL of the reagent dilution was applied onto cells followed by 1 hour incubation at +37° C. The specific absorbance was measured at 450 nm and a reference absorbance was measured at 690 nm. […] Analysis for Protein Levels

[1] = test system: BC3-luc pleural effusion lymphoma cells; experiment: Orthotopic xenograft model of pleural effusion lymphoma; type: in vivo; details: NOD-SCID mice
Method: An orthotopic xenograft model of pleural effusion lymphoma was used to assess the anti-tumor activities of compounds 15, 21 and 22. Female NOD-SCID mice (Charles River, France) were injected intraperitoneally with pleural effusion lymphoma cells carrying a stable NF-kappaB regulated luciferase reporter (BC3-luc cells) (Keller et al., 2006). The tumors were allowed to establish for three days after which the mice were imaged and divided into treatment (groups 4-5 mice per group). The compound treatments were initiated on day four. The mice received 2 mg/kg (cmp21) or 20 mg/kg (cmp15 and 22) every other/third day for seven times via i.p. injections, control mice received DMSO only. The mice were imaged prior to each compound injection. Imaging was carried out with Xenogen In Vivo Imaging System (IVIS), D-luciferin (Synchem OHG, Germany) was injected intraperitoneally (100 mg/kg) 10-15 min prior to each imaging. Quantitation was done using Igor Pro Carbon analysis software, bioluminescence was quantitated and plotted as total flux within a given ROI.

[2] = test system: p53DsRed reporter in PG3/9 melanoma cells (A375 clone); experiment: p53DsRed reporter activation assay (in vitro p53 activity assay); type: cell-based; details: for pEC50: Homo sapiens, A-375, PG3/9 melanoma cells, 24 hours, read-out: effective concentration (EC50), p53DsRed reporter activation
Method: The ability of the compounds to activate p53 was analyzed using a cell-based assay. To establish the assay, a stable cell transfectant expressing a p53-responsive reporter was generated. A375 melanoma cell line (ATCC CRL-1619) was transfected with a vector containing the p53 consensus element 13x repeat (13XRE) (Kern et al., 1991) cloned to a DsRed Express reporter vector (Clontech) to yield the vector “PG13DsRed”, hereafter termed as “p53DsRed”. […] The cell clone PG3/9 was used in the screen.
The assay was carried out in a 96-well format and all plate handlings were done using liquid handling robots (Thermo CRS, Thermo Electron Corporation; Biomek FX, Beckman Coulter and Hamilton STAR, Hamilton Microlab). Cells were plated at 10,000 cells/100 μL/well onto 96-well ViewPlates (Packard) and incubated overnight at +37° C. and 5% CO2. Small molecule compound chemical libraries were purchased and diluted to dimethylsulfoxide (DMSO) at 10 mM concentration. The compounds were pin-transferred to plain media at approximately 3 μM concentration either as single (one compound/one well) or pools of compounds (two compounds/one well). The growth media was removed and replaced with media with the test compounds followed by incubation of the cells for 24 h at +37° C. and 5% CO2. […] Following the incubation, the cells were washed with phosphate buffered saline and fixed with paraformaldehyde (PFA, 4%, 25 min, RT) and cell nuclei were stained with Hoechst 33342 (Molecular Probes, 4 μg/mL, 2 min, RT).
The fluorescence signals of Hoechst 33342 and DsRed reporter expression in the fixed cells were analyzed using ArrayScan 4.5 high-content screening platform (Cellomics) including an inverted microscope (Zeiss 200M) with 10× objective (Zeiss), Omega XF93 filter (Omega), ORCA-AG CCD camera (Hamamatsu). The algorithm used for image acquisition and analysis was Target Activation Bioapplication (Cellomics), which was set to analyse the total number of cells and the percentage of p53 reporter positive cells termed as “responders”. For each well, four images on both fluorescence channels were acquired corresponding to approximately 1700 cells in mock-treated wells. The mean number of responders was calculated for each well, and compounds causing reporter activation for more than two times the mean number of responders in the mock treated cells in each plate were regarded as hits.
In the secondary screen the hits were collected and tested over 100 nM to 10 μM concentration range. The compound treatment time, cell fixations and stainings as well as fluorescence signal detection was as described above. Compounds providing consistent p53DsRed reporter activation at low μM concentration range were selected for further testing. The effective concentration 50 (EC50) was calculated using the following formula: […]

In vivo toxicity tests = details: mice; for toxicity by weight curves, macroscopical pathologies, hematoxylin-eosin staining of tissues: 9 doses/3 weeks
Method: Acute and chronic toxicity of the compounds was tested on FVB/N mice. Female mice of 4-6 weeks old were purchased from Harlan and 2 animals were used per compound dose. The mice were injected intraperitoneally with the compounds three times a week for three weeks in 30 microL DMSO. Two animals received vehicle only (=30 μL DMSO). The animals were weighed prior to injections and were monitored for any signs of toxicity, distress or unusual behaviour. The animals were sacrificed three days after receiving the final injection. The liver, kidney, spleen, small intestine and thymus were excised and fixed in 4% paraformaldehyde overnight, and processed into paraffin-blocks. Haematoxylin-eosin staining (HE staining) of the tissues was performed using standard immunohistological techniques.

WS-1 diploid fibroblast = experiment: WST-1 cell viability assay, WS-1; type: cell-based, human; details: Homo sapiens, 72 h, three days
Method: as §1

RPMI7951 (MUTp53) = experiment: WST-1 cell viability assay, RPMI-7951; type: cell-based; details: Homo sapiens, RPMI-7951, 72 h, three days
Method: as §1

[3] = test system: Human intestinal endothelial cells; experiment: WST-1 cell viability assay, intestinal endothelial cells; type: cell-based; details: Endothelial cell, 72 h, three days
Method: as §1

[4] = test system: normal human primary melanocytes; experiment: WST-1 cell viability assay, melanocytes; type: cell-based; details: Homo sapiens, 72 h, Melanocyte, three days
Method: as §1

A375 melanoma cells = experiment: Flow cytometry cell cycle and apoptosis analysis; type: cell-based
Method: Cell cycle analysis and cellular apoptosis was assayed with flow cytometry (LSR, Beckton Dickinson). Cells were treated with the compounds and both floating and adherent cells were harvested and fixed in 70% ethanol at −20° C. followed by staining of DNA with propidium iodide. A total of 10,000 counts were collected and data was analysed using ModFit LT 3.1 software. Cells present in sub-G1 population were regarded as apoptotic.

For CN(C)CCNC(=O)c1cccn2c(=O)c3cc4ccccc4cc3nc12 [Compound 21], the pIC50 (A375 melanoma (WTp53)) was 6.15, the “inhibition of tumor cell growth (bioluminescence)” value ([1]; 2 mg/kg i.p. seven times) was “did not have any effect” and the pEC50 [2] was 6.52. The “acute or chronic toxicities based on histological HE-stainings” value (In vivo toxicity tests; i.p., 0.5, 1, 2 mg/kg three times a week for three weeks) was “No acute or chronic toxicities were observed”, the “toxicity by weight curves, macroscopical pathologies, hematoxylin-eosin staining of tissues” value (In vivo toxicity tests; i.p., 0.5, 1, 2 mg/kg) was “did not show any apparent toxicity” and the pIC50 (WS-1 diploid fibroblast) was 5.72. For the same compound, the pIC50 (RPMI7951 (MUTp53)) was 5.52, the pIC50 [3] was 5.57 and the pIC50 [4] was less than 4.40. The “cell cycle / apoptosis phenotype” value (A375 melanoma cells; A375, 0.1 μM (three days) and 0.5 μM (six days)) was “G2-phase arrest and apoptosis”.
With Cc1cc(C)c2nc3nc(C)cc(C)c3c(N)c2c1 [Compound 22, 2,4,7,9-tetramethylbenzo[b]-1,8-naphthyridin-5-amine] the pIC50 (A375 melanoma (WTp53)) was 5.34, the “inhibition of tumor cell growth (bioluminescence)” value ([1]; 20 mg/kg i.p. seven times) was “noticeable inhibition of the tumor cell growth” and the pEC50 [2] was 5.59. For the same compound, the “fraction of p53-reporter activated cells at high concentrations” value ([2]; high concentrations, apparently due to excessive cell death) was “decrease in the fraction of p53-reporter activated cells”, the “acute or chronic toxicities based on histological HE-stainings” value (In vivo toxicity tests; i.p., 5, 10 and 20 mg/kg three times a week for three weeks) was “No acute or chronic toxicities were observed” and the “toxicity by weight curves, macroscopical pathologies, hematoxylin-eosin staining of tissues” value (In vivo toxicity tests; i.p., 5, 10 and 20 mg/kg) was “did not show any apparent toxicity”. For the same compound, the pIC50 (WS-1 diploid fibroblast) was 4.94, the pIC50 (RPMI7951 (MUTp53)) was 4.88 and the pIC50 [3] was 4.84. For the same compound, the pIC50 [4] was 4.49 and the “cell cycle / apoptosis phenotype” value (A375 melanoma cells; A375, three days at 10 μM or six days at 5 μM) was “G2-phase arrest and apoptosis”.
